For test [1], the system named is human alkaline phosphatase (hALP) and human type I collagen (hCollagen I). Briefly: RT-PCR analysis of hALP and hCollagen I in human mesenchymal stem cells. In kind it is cell-based. How it is done: Human mesenchymal stem cells (3×10^4 cells) were seeded on a 6-well plate, followed by culture for 7 days in the presence of an osteoblast differentiation medium (Lonza) or a maintenance medium (Lonza). Peptide D (100 μM and 300 μM) was added to each well. Further, a peptide solvent was added to a control group. After culture, the cells were washed with PBS and dissolved in QIAzol Lysis Reagent (QIAGEN) (0.75 mL). Then, the solution was collected. The solution was left at room temperature for 5 minutes. Then, chloroform (Wako) (0.15 mL) was added, the resultant was admixed by turning upside down, and then the resultant was centrifuged under conditions of 4° C. and 12000×g for 15 minutes. The supernatant was collected in a new tube. RNA was isolated from the supernatant with the use of an EZ1 RNA universal tissue kit (QIAGEN) and Magtration System 12GC (QIAGEN). After determination of the RNA concentration, each RNA (250 ng) was subjected to electrophoresis with 1% agarose gel for confirmation of the occurrence or nonoccurrence of RNA degradation. Non-degraded RNAs (500 ng each) were subjected to RT-PCR. RT-PCR was performed using a ThermoScript RT-PCR System (Invitrogen) and random primers. […]
Samples obtained after the PCR reaction were subjected to electrophoresis with 1% agarose gel. […] The obtained images were analyzed with a CSAnalyzer. […]

In another test the test system is RAW264 cells. In words: TRAP activity in RAW264 cells with GST-RANKL. The class given is cell-based. The method, then:
Peptide E (SEQ ID NO: 16) was prepared from peptide D with the substitution of a single amino acid. TRAP activity and ALP activity were determined to compare peptide D and peptide E in terms of effects of causing osteoclast differentiation and osteoblast differentiation. RAW264 cells mixed with 10% FBS+αMEM (SIGMA) were seeded on a 96-well plate (2×10^3 cells/well). After confirmation of cell adhesion, the medium was replaced with 10% FBS+αMEM containing 10 nM GST-RANKL (Oriental Yeast Co., Ltd.). Peptide D and peptide E were separately added thereto at concentrations of 25, 50, 100, and 200 μM, followed by culture for 4 days. After the termination of culture, 100 μL acetone/ethanol was added to each well for cell fixation, followed by drying in a draft for 30 min.
In order to obtain a TRAP solution buffer at a concentration of 1.5 mg/mL, a solution was prepared by adjusting p-nitrophenyl phosphate (Nacalai) with 50 mM citric acid buffer and adding a 0.2 M sodium tartrate solution in a volume 1/10 that of citric acid buffer. The obtained TRAP solution buffer was added to each well in an amount of 100 μL followed by incubation at 37° C. for 45 min. Then, a 1N NaOH solution (50 μL) was added thereto to terminate the reaction. The OD value at 405 nm was determined for each well with a microplate reader (BMG Labtech) in the same manner as in Example 1.
RAW264 cells mixed with 10% FBS+αMEM (SIGMA) were seeded on a 96-well plate (2×10^3 cells/well). After cell adhesion had taken place, the medium was replaced with 10% FBS+αMEM containing 5 nM GST-RANKL (Oriental Yeast Co., Ltd.). Peptide D in the form of TFA, peptide D in the form of acetate, and peptide D in the form of hydrochloride with concentrations of 25 and 100 μM were separately added thereto, followed by culture for 4 days. After the completion of culture, acetone/ethanol (100 μL) was added to each well for cell fixation, followed by drying in a draft for 30 min. TRAP activity determination was carried out by the method described in Example 16. […] Peptide D in the form of hydrochloride was confirmed to have neither osteoblast differentiation activity nor osteoclastgenesis inhibition activity. However, peptide D in the form of acetate was confirmed to have higher osteoblast differentiation activity and lower osteoclastgenesis inhibition activity compared with peptide D in the form of TFA. […] It is also possible to produce modified peptide D having osteoblast differentiation activity alone or modified peptide D having osteoclastgenesis inhibition activity alone.

Bridges are numbered along the chain shown (N, C = ends). Where no end group is shown, it is not given here.

With “peptide D: cyclic peptide of SEQ ID NO: 7, 9 amino acids, two cysteine residues bound via a disulfide bond; binds to RANKL (YCWSQYLCY; disulfide 2-8 (inferred))”, the “expression levels of alkaline phosphatase and type I collagen” value in test [1] (100 μM and 300 μM, 7-day differentiation) is on record as “increased in a peptide-concentration-dependent manner”. Further, in test [1] (300 μM, maintenance medium), the “mRNA expression levels of alkaline phosphatase and type I collagen” value is “caused increases in the mRNA expression levels”. For the same substance, in the test with RAW264 cells (25, 50, 100 and 200 μM, 10 nM GST-RANKL, 4 days), the TRAP activity result is listed as “inhibit TRAP activity”. In addition, the “TRAP activity, peptide D compared with peptide E” value with RAW264 cells (100 and 200 μM) is given as “significant inhibition actions compared with peptide E”.

These data come from patent US20100260680A1, “NOVEL BONE MASS INCREASING AGENT” (ORIENTAL YEAST CO., LTD., priority 2007, published 2010).
